Measured values from article PMC3976407, “Inhibition of Fatty Acid Binding Proteins Elevates Brain Anandamide Levels and Produces Analgesia” (PLoS ONE, 2014).

Columns and labels:
FABP7 [1] = molecular target: T1, FABP7 (Homo sapiens, UniProt O15540); experiment: NBD-stearate fluorescence displacement binding
Protocol: (§1) Inhibitory constant (Ki) values were elucidated utilizing NBD-stearate fluorescence displacement as described previously [9], [31]. The tests were performed in 96-well plates containing inhibitors (0.1 – 50.0 μM), FABP, and NBD-stearate. Fluorescence intensity was measured with a FLUOstar OPTIMA spectrofluorometer with excitation and emission wavelengths of 460 and 544 nm, respectively.

[2] = test system: formalin-induced nociception in mice; experiment: Formalin test; format: in vivo, mouse; conditions: 20 mg/kg, i.p.; for Effect upon first phase of formalin-induced nociception: first phase 0–5 min
Protocol: Mice were habituated to the observation chamber (Plexiglas box, 25 cm×25 cm×25 cm) for 30 min prior to formalin injection. Mice were administered FABP inhibitors 60 min prior to formalin. The animals subsequently received an injection of formalin (2.5% in saline, 20 μl) into the plantar surface of the right hind paw using a 30 gauge needle and were immediately placed back into the observation chamber and nocifensive behavior (time spent licking or biting the paw) was recorded for 60 min. Nocifensive behavior was scored during the first phase (0–5 min) and the second phase (∼15–45 min) of the formalin test.

FABP5 [3] = molecular target: T2, FABP5 (Homo sapiens, UniProt Q01469); experiment: NBD-stearate fluorescence displacement binding; conditions: averages ± S.E. of three independent experiments
Protocol: Inhibitory constant (Ki) values were elucidated utilizing NBD-stearate fluorescence displacement as described previously, [31]. The tests were performed in 96-well plates containing inhibitors (0.1 – 50.0 μM), FABP, and NBD-stearate. Fluorescence intensity was measured with a FLUOstar OPTIMA spectrofluorometer with excitation and emission wavelengths of 460 and 544 nm, respectively.

[4] = test system: acetic acid-induced writhing in mice; experiment: Acetic acid-induced writhing; format: in vivo, mouse; conditions: for Effect upon acetic acid-induced writhing: 20 mg/kg, subcutaneous, 60 min before acetic acid
Protocol: Mice were acclimated to the laboratory environment for at least two hours and were habituated to the testing chamber for 30 min prior to acetic acid challenge. SBFI26, SBFI50, SBFI60, and SBFI62 (20 mg/kg) were administered via the subcutaneous route 60 min before acetic acid. Rimonabant, SR144528, GW6471, and naloxone were given 10 min before the inhibitors via the subcutaneous route. The mice subsequently received an i.p. injection of acetic acid (0.6% in sterile saline, 10 μl/g) and were placed in observation chambers. Abdominal stretches (marked by extension of the body and hind limbs) were counted for 20 min starting at 5 min post-injection.

FABP3 [5] = molecular target: T3, FABP3 (Homo sapiens, UniProt P05413); experiment: NBD-stearate fluorescence displacement binding
Protocol: as §1

[6] = test system: carrageenan-induced thermal hyperalgesia and paw edema in mice; experiment: Carrageenan-induced paw edema and thermal hyperalgesia; format: in vivo, mouse; conditions: 20 mg/kg, i.p.
Protocol: Paw edema was induced by injecting 1% λ-carrageenan (20 μl, in sterile saline) into the plantar surface of the left hind paw using a 30 gauge needle attached to a glass syringe (Hamilton Company). Paw diameters were measured before carrageenan injection and 4 or 24 hours after injection using digital electronic calipers (Fisher) and expressed to the nearest ± 0.01 mm. SBFI26, SBFI50, SBFI60, and SBFI62 were dissolved in DMSO:cremophor-EL:saline (4% DMSO:10% Cremophor-EL) and administered (20 mg/kg, i.p.) 60 min prior to injection of carrageenan. Receptor antagonists were injected 10 min before the inhibitors. Rimonabant and SR144528 (3 mg/kg, i.p.) were dissolved in ethanol:cremophor-EL:saline (1∶1∶18) while GW6471 (4 mg/kg, i.p.) was dissolved in DMSO:cremophor-EL:saline (2% DMSO:5% Cremophor-EL). Edema is reported as the change in paw diameter at 24 hr compared to the baseline. Thermal hyperalgesia was measured using the Hargreaves plantar apparatus (Ugo Basile) as previously reported.

HeLa cells = experiment: Cytotoxicity, MTT colorimetric assay; format: cell-based; conditions: 24 hr incubation, n = 3
Protocol: Cytotoxicity of the FABP inhibitors SBFI26 and BMS309403 were examined using the MTT [3-(4,5-dimethylthiazol-2-yl)-2,5 diphenyl tetrazolium bromide] colorimetric assay. HeLa cells were seeded into 96-well plates (15,000 cells/well) and incubated for 24 hours at 37°C in DMEM supplemented with 10% FBS, penicillin (100 U/mL) and streptomycin (100 μg/mL). The cells were subsequently washed with PBS and treated with serum-free DMEM containing 10 nM to 1 mM SBFI26, BMS309403, or 5 mM hydrogen peroxide as a positive control. Following a 24 hr incubation, the cells were washed with PBS and treated with MTT (0.5 mg/mL in PBS) for 4 hrs. The cells were subsequently solubilized using DMSO and the absorbance was read at 562 nm in a microplate reader.

FABP5 [7] = molecular target: T2, FABP5; design: method as in PMID 22170058; conditions: determined previously ref 9; cited from earlier work
FABP3 [8] = molecular target: T3, FABP3; design: method as in PMID 22170058; conditions: determined previously ref 9; cited from earlier work
FABP7 [9] = molecular target: T1, FABP7; design: method as in PMID 22170058; conditions: determined previously ref 9; cited from earlier work
rats subjected to CCI = experiment: Rat neuropathic pain model (chronic constriction injury of the sciatic nerve); format: in vivo; conditions: 20 mg/kg i.p.
Text: Male Fisher 344 rats were habituated and pre-injury evoked responses were obtained. The Hargreaves test was used to assess thermal hyperalgesia. Briefly, plexiglass enclosures were set atop a plexiglass platform and infrared source set at 50% power located under the platform was used as the heat stimulus (Ugo Basile). A 200 mW, 535 nm diode laser was mounted in an adjustable stand placed beneath the plexiglass platform, and was used as an alternative heat stimulus for some of the animals in this study. The latency time to hind paw lift during heating of the plantar surface was recorded. Five recordings were obtained on each hind paw with at least 2 min rest between measurements. The maximum time for exposure to the infrared or diode laser source was 30.5 s to avoid any possible tissue injury. For mechanical threshold measurements, the animal enclosures rested on a screen with mesh of 0.5 cm spacing. Following acclimation, an electronic von Frey Anesthesiometer (IITC Life Sciences) was applied with increasing pressure to the plantar surface of the hind paw until the animals lifted the hind paw. The number of grams of force applied by the probe to induce withdrawal was recorded. Five recordings were obtained on each hind paw with at least 3 min between measurements. For CCI surgeries, our procedure closely followed that reported previously. Briefly, each animal received an i.p. injection of ketamine/xylazine (75 mg/kg and 10 mg/kg, respectively). The hind leg was surgically prepped and the anesthetized animal placed prone on an sterile towel over a heating pad. The temperature was monitored rectally. A skin incision was made mid-thigh with a medium curved scalpel and then scissors were used to expose the sciatic nerve. Approximately 1 cm of the main trunk proximal to the trifuraction was isolated and 4 strands of 4-0 chromic gut were tied around the nerve ∼ 1 mm apart under magnification. In a modification of the original method, a 2-0 prolene strand was placed between the nerve and the gut to which the suture was tightened. The prolene strand was then removed. This prevented over tightening and reduced subsequent motor paralysis. The muscle layers were then reopposed and sutured, and surgical staples were used to close the skin. On post-injury days 7 through 10, heat and mechanical measurements were obained for the ipsilateral hindpaw of each CCI animal. Immediately following the post-injury measurements, animals were randomized and received i.p. injections of vehicle or 20 mg/kg SBI26 (DMSO:cremophor:sterile saline 1∶1∶2 by volume). Up to 0.8 ml of drug or vehicle was injected. The observer was blinded as to administration of drug or vehicle. Thermal and mechanical measurements were performed at 1 and 4 h post-injection. Data were normalized to pre-injury baseline measurements for each animal.

T2 sequence (Q01469 whole entry, species assumed): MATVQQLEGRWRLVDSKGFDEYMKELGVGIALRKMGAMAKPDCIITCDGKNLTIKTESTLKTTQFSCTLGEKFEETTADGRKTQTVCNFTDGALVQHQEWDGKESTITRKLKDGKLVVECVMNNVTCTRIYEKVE
T3 sequence (P05413 whole entry, species assumed): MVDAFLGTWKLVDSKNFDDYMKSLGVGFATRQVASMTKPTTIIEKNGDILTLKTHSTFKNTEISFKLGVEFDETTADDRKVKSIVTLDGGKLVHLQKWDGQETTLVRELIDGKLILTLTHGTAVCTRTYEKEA
T1 sequence (O15540 whole entry, species assumed): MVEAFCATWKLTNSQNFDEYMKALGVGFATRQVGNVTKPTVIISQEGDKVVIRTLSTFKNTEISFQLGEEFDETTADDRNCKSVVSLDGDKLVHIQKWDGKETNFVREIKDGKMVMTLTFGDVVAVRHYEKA

| Structure (SMILES) | Ki (FABP7 [1]) [nM] | Effect upon first phase of formalin-induced nociception [2] | Ki (FABP5 [3]) [nM] | Effect upon acetic acid-induced writhing [4] | Ki (FABP3 [5]) [nM] | Effect upon carrageenan-induced paw edema [6] | Effect upon carrageenan-induced thermal hyperalgesia [6] | further results |
| --- | --- | --- | --- | --- | --- | --- | --- | --- |
| O=C(Nc1cccc2ccccc12)C1C(c2ccccc2)C(C(=O)Nc2cccc3ccccc23)C1c1ccccc1 (centres unmarked) [SBFI62, 2,4-diphenylcyclobutane-1,3-dicarboxylic acid di-1-naphthyl amide] | 6100 ± 500 | without effect | 3300 ± 700 | without effect | 2600 ± 1100 | without effect | without effect | Effect upon second phase of formalin-induced nociception ([2]; second phase ∼15–45 min): without effect |
| CCc1c(-c2ccccc2)c(-c2ccccc2)nn1-c1ccccc1-c1cccc(OCC(=O)O)c1 [BMS309403, reference compound] |  |  |  |  |  |  |  | Cytotoxicity _50 values (HeLa cells): 11.3 ± 0.9 µM |
| O=C(Nc1cccnc1)N1CCC(Cc2cccc(Oc3ccc(C(F)(F)F)cn3)c2)CC1 [PF-3845, reference compound] |  |  |  |  |  |  |  | Antinociceptive effects in the acetic acid test after pretreatment with CB1 antagonist rimonabant ([4]; rimonabant 3 mg/kg 10 min before inhibitor): blocked |
| CCCCCCC(CCCCCCCCCCC(=O)O)N(C)c1ccc([N+](=O)[O-])c2nonc12 (centres unmarked) [NBD-stearate, 12-N-methyl-(7-nitrobenz-2-oxa-1,3-diazo)aminostearicacid] |  |  |  |  |  |  |  | Kd (FABP5 [7]): 160 nM; Kd (FABP3 [8]): 180 nM; Kd (FABP7 [9]): 220 nM |
| O=C(O)C1C(c2ccccc2)C(C(=O)Nc2cccc3ccccc23)C1c1ccccc1 (stereo not drawn) [SBFI60, alpha-2,4-diphenylcyclobutane-1,3-dicarboxylic acid mono-1-naphthyl amide] | 300 | reduced | 1600 | without effect | > 10000 | without effect | without effect |  |
| O=C(O)C1C(c2ccccc2)C(C(=O)Oc2ccc3ccccc3c2)C1c1ccccc1 (stereo not drawn) [SBFI50, alpha-2,4-diphenylcyclobutane-1,3-dicarboxylic acid mono-2-naphthyl ester] | 600 ± 100 | reduced | 1300 ± 200 | without effect | 3500 ± 300 | reduced | reduced | Effect on mechanical thresholds in CCI rats (rats subjected to CCI; 1 and 4 h): Neither compound altered; Effect on thermal hyperalgesia in CCI rats (rats subjected to CCI; measured 1 and 4 h post-injection): without effect |
